A short description of series [1]: Removal efficacy test, solvent immersion followed by rinsing with water. The settings on record: for Removal Efficacy normalized to trichloroethylene: Cereous preservative, water rinsing. From the text: (§1) For our evaluation, a comparative method was used in which removal efficacy (RE) of several alternative solvents are compared with RE value obtained for the industrial standard degreaser, trichloroethylene.
(§2) The removal Efficacy (RE) measures in percentage (%) the degree of removal of organic materials (metal protector and/or solvent) from the surface of metal parts. The removal efficacy test, the grease of ten metallic greased pieces was removed by degreasing process. The standard procedure is carried out by bringing the solvent into contact with ten metal pieces which were previously treated with the metal protector. The metal parts are immersed in the solvent without shaking during 10 minutes in one volume of fresh solvent followed by three consecutive washing cycles by immersion in clean water. The amount of organic material (grease and/or solvent) that was not eliminated by the assayed procedure was determined by direct weight after removal of organic residues from the metallic parts by standard cleaning procedure with trichloroethylene.
Preservative B is a cereous-based preservative.
(§3) The degreasing efficacy of the LAOC solvent family was studied. These experiments remove the grease of ten greased pieces according to the procedure described before. This experiment was carried out for two different greases and the obtained results are described in table 2.

Experiment in series [2]: as above
The settings on record: for Removal Efficacy normalized to trichloroethylene: Solvent-based preservative, water rinsing.
Text: as §1, §2
Preservative A is a solvent-based preservative Aromatic hydrocarbons are often used in preservative formulations.
as §3

A short description of series [3]: Surface degreasing of metal parts followed by solvent evaporation.
Series [4] is described as follows: Cytotoxicity, in vitro NRU. In kind it is cell-based. The note with it: read-out: Cytotoxicity, in vitro NRU, IC50 (mg/mL). Experimental.
Series [5] in a line: Reusability of solvent without prior purification. How it is done:
as §2
The recovery and reusability of solvents is critical in order to have an economically viable process. The reusability of butyl levulinate (LAOC-4) has been studied for both preservatives. The methodology involved the recovery and reuse of the solvent several times without any prior purification.

The subject of series [6] is Fish. The series can be described thus: Fish acute toxicity. The settings on record: in vivo.
Series [7] in a line: Fish acute toxicity. The note with it: fish, in vivo; read-out: Fish acute toxicity, experimental, LC50.
The conditions of series [8]: classified by many health authorities, R45 risk phrase; cited from earlier work.

In brackets after ≈: the same amount, converted by molar mass. Bounds are passed on as bounds.

With `CCOC(=O)CCC(C)=O` [LAOC-2, Ethyl levulinate], the “Removal Efficacy normalized to trichloroethylene” value (“Removal Efficacy normalized” below) in series [1] stood at 70.9%; in series [2], 53.0%.
For `CCCOC(=O)CCC(C)=O` [LAOC-3, Propyl levulinate], the figures for the “Removal Efficacy normalized” value in series [1] and in series [2] were 81.7% and 79.6%, respectively.
In the case of `CC(=O)CCC(=O)OC(C)C` [LAOC-3i, iso-propyl levulinate], the “Removal Efficacy normalized” value in series [1] is given as 87.0%.
Turning to `CCCCOC(=O)CCC(C)=O` [LAOC-4, Butyl levulinate], the “Removal efficacy (%)” value in series [3] (Ultrasound, 41° C., 10 min, evaporation 23 s at 117° C.) worked out at 100%. Moreover, in series [4], the IC50 came out at 5.7 mg/mL (≈ 33.1 mM). Moreover, the “Reusability (values normalized to trichloroethylene = 100)” value in series [5] (Cereous preservative, number of cycles 1) stood at 98.0; in series [5] (Cereous preservative, number of cycles 2), 93.2; in series [5] (Cereous preservative, number of cycles 4), 93.4; in series [5] (Cereous preservative, number of cycles 7) it was 85.9; in series [5] (Cereous preservative, number of cycles 10), 84.6; in series [5] (Solvent based preservative, number of cycles 1), 74.4. The “Reusability (values normalized to trichloroethylene = 100)” value in series [5] (Solvent based preservative, number of cycles 2) was 78.2; in series [5] (Solvent based preservative, number of cycles 4) it was 62.2; in series [5] (Solvent based preservative, number of cycles 7) it was 69.7. Further, the “Removal Efficacy normalized” value in series [1] was 99.9%; in series [2], 79.0%. For the same molecule, in series [6], the “Ecotoxicity rating (fish acute toxicity and ready biodegradability)” value is on record as “Low ecotox”. In addition, the 50% lethal concentration (LC50) in series [7] is less than 100 µg/mL.
For `CC(=O)CCC(=O)OCC(C)C` [LAOC-4i, iso-butyl levulinate], the IC50 in series [4] was 4.4 mg/mL (≈ 25.5 mM). Further, the “Removal Efficacy normalized” value in series [1] was 96.4%; in series [2], 87.8%. For the same molecule, in series [6], the “Ecotoxicity rating (fish acute toxicity and ready biodegradability)” value is reported as “Low ecotox”. In addition, in series [7], the LC50 was less than 100 µg/mL.
The like results for `CCCCCOC(=O)CCC(C)=O` [LAOC-5, Pentyl levulinate] were, in that order, 16.6 mg/mL (≈ 89.1 mM), 89.3%, 37.7%, “Low ecotox” and less than 100 µg/mL.
Turning to `CCCCCCOC(=O)CCC(C)=O` [LAOC-6, Hexyl levulinate], the “Removal Efficacy normalized” value in series [1] turned out to be 56.0%.
Same read-out and setting: under `CCCCCCCCOC(=O)CCC(C)=O` [LAOC-8, Octyl levulinate] stands 61.0%.
On to `ClC=C(Cl)Cl` [Trichloroethylene, reference compound], for which the carcinogen classification result in series [8] is “probable carcinogen”. In series [3] (Immersion, 20° C., 3 min, evaporation 3 min at 20° C.), the “Removal efficacy (%)” value was 100%. Besides, the “Removal Efficacy normalized” value in series [1] and in series [2] was 100.0% throughout. Also, the “RE (%) Removal Efficacy” value in series [1] (Preservative B (cereous-based), immersion 10 minutes, three water washing cycles) is recorded as 98.1%; in series [2] (Preservative A (solvent-based), immersion 10 minutes, three water washing cycles) it was 94.2%. For the same molecule, the “removal efficacy (RE)” value in series [2] (depending on the nature of the preservative (both preservatives A and B)) was 94-98%.

The values above are taken from patent US8834635B2, “Degreasing compositions derived from levulinic acid (a compound obtainable from biomass) and process for degreasing metal surfaces” (Institut Univ. de Ciencia Tecnologia, S.A., priority 2011, dated 2014).
